Experimental data taken from patent US8785452B2, “Anti-infective compounds” (priority 2008, dated 2014).
Like-named read-outs stand apart in the source and are kept apart here.

Tests used:
[1] = system: M. tuberculosis H37Rv-GFP; experiment: microbe, parasite or virus in culture; assay type: cell-based, Mycobacterium tuberculosis; conditions: Mycobacterium tuberculosis, H37RV, Macrophage
Raw264.7 cells [2] = conditions: mouse, 5 days; for Primary QIM CellNb: 20 μM
Raw264.7 cells [3] = experiment: Cell number (CellNb) from image analysis of the phenotypic cell-based assay; conditions: for Primary QIM CellNb: primary screen, 20 μM
[4] = confirmation, 20 uM, read-out: QIM Confirm % Inhibition 20 uM
[5] = primary screen, 20 μM, read-out: Primary QIM % Inhibition

| Compound | inhibition at 20 µM [1, 4] [%] | inhibition at 20 µM [1, 5] [%] | Primary QIM CellNb (Raw264.7 cells [2]) | Primary QIM CellNb (Raw264.7 cells [3]) | QIM Confirm CellNb 20 uM (Raw264.7 cells [2]; 20 uM) | QIM Confirm CellNb 20 uM (Raw264.7 cells [3]; confirmation, 20 uM) | QIM Confirm CellNb 2 uM (Raw264.7 cells [3]; confirmation, 2 uM) |
| --- | --- | --- | --- | --- | --- | --- | --- |
| O=C(N/N=C/c1cc(Br)cc([N+](=O)[O-])c1O)c1ccncc1 [IPK 000 080 81] | 99.5 | 94.7 | 104.9 | 363.3 |  |  |  |
| CCOC(=O)C1=C(C)NC2=C(C(=O)CC(c3ccccc3)C2)C1c1cccc(O)c1 (stereo not shown) [IPK 000 083 89] | 59.1 | 73.5 | 19.5 | 38.8 |  |  |  |
| CCCOC(=O)C1=C(C)NC2=C(C(=O)CC(c3ccccc3)C2)C1c1cccc(O)c1 (stereo not shown) [IPK 000 085 99] | 49.5 | 37.1 | 4.5 | 67.3 |  |  |  |
| C=C(N/N=C/c1cccc(C)n1)c1nn(Cc2ccc(Br)cc2)cc1Br [IPK 000 091 17] | 75.7 | 75.6 | 35.4 | 191.5 |  |  |  |
| O=C(N/N=C/c1ccc([N+](=O)[O-])s1)C1CCN(Cc2ccc(Br)cc2)CC1 [IPK 000 091 49] | 95.1 | 90.5 | 9.3 | 110.5 |  |  |  |
| N=C1S/C(=C/c2ccc([N+](=O)[O-])cc2)C(=O)N1c1nccs1 [IPK 000 094 38] | 6 | 46 | 13.6 | 126.3 |  |  |  |
| CC(Oc1cccc2ccccc12)C(=O)NNC(=O)c1cc2ccccc2oc1=O (stereo not shown) [IPK 000 095 07] | 75.8 | 70.9 | 8.0 | 388.3 |  |  |  |
| O=C(N/N=C\c1cc2c(s1)CCCCC2)c1ccncc1 [IPK 000 102 07] | 84.7 | 94.7 | 99.5 | 116.0 | 79.6 | 124.8 |  |
| CN1C/C(=C\c2ccccc2Br)C(=O)/C(=C/c2ccccc2Br)C1 [IPK 000 102 36] | 66.5 | 65.6 | 4.4 | 193.3 |  |  |  |
| CCN1C/C(=C\c2ccc3c(c2)OCO3)C(=O)/C(=C/c2ccc3c(c2)OCO3)C1 [IPK 000 102 52] | 68.1 | 70.4 | −7.0 | 179.8 |  |  |  |
| O=C(COc1ccccc1-c1ccccc1)N/N=C\c1ccc([N+](=O)[O-])s1 [IPK 000 103 28] | 71.3 | 71.1 | 49.5 | 134.3 |  |  |  |
| CCN(CC)c1ccc(/C=N/NC(=O)c2cccs2)c(O)c1 [IPK 000 103 76] | 74.5 | 85.7 | −1.7 | 47.8 |  |  |  |
| O=C(N/N=C1\C(=O)N(Cc2cccc3ccccc23)c2ccccc21)c1cc(-c2ccccc2)n[nH]1 [IPK 000 103 78] | 98 | 94.6 | 3.5 | 263.5 |  |  |  |
| C/C(=N\NC(=O)c1cccc(F)c1)c1ccc2ccccc2c1 [IPK 000 104 07] | 80.2 | 82.3 | 65.1 | 243.5 |  |  |  |
| Cn1cc(/C=N/NC(=O)c2cccc(F)c2)c2ccccc21 [IPK 000 104 11] | 83.3 | 89.7 | 19.9 | 203.8 |  |  |  |
| CC(/C=N/NC(=O)c1cccc(F)c1)c1ccccc1 (stereo not shown) [IPK 000 104 13] | 89.6 | 68.8 | 25.2 | 115.8 |  |  |  |
| COc1cc(Cl)cc(/C=N/NC(=O)c2ccccc2O)c1O [IPK 000 104 20] | 34.6 | 65.2 | −2.9 | 29.5 |  |  |  |
| O=C(O)COc1ccccc1/C=N/NC(=O)c1ccncc1 [IPK 000 105 19] | 106 | 98.7 | 104.1 | 374.3 |  |  | 566.4 |
| CC(/C=N/NC(=O)c1ccncc1)c1ccccc1 (stereo not shown) [IPK 000 105 20] | 96.4 | 97.1 | 103.8 | 316.5 |  |  |  |
| CCCCc1ccc(C(=O)Nc2ccc(Br)cn2)cc1 [IPK 000 105 47] | 50.7 | 60.1 | 68.1 | 125.8 |  |  |  |
| CCOC(=O)CSc1nc(N)c(C(=O)Nc2ccc(N(C)C)cc2)s1 [IPK 000 105 70] | 84.6 | 61.2 | 4.7 | 315.5 |  |  |  |
| Nc1nonc1NC(=O)CSc1cccc2ccccc12 [IPK 000 106 30] | 67.2 | 65.7 | 28.5 | 146.5 |  |  |  |
